According to patent US8183297B2 (Taipei Veterans General Hospital, priority 2008, dated 2012):

Experiments:
AT/RT-CD133+ cells [1] = test: MTT assay of cell viability/proliferation in AT/RT-CD133+; format: cell-based, human; parameters: anti-cancer proliferation effect of single agent chemotherapy with addition of RV: dose or concentration left out as unconfirmed; conditions: for resistance of CD133+ to chemotherapeutic agent compared with CD133-: AT/RT cells, p<0.01
Protocol: (§1) This research followed the tenets of the Declaration of Helsinki and all samples were obtained after patients had given informed consent. Dissociated cells from the samples of brain tumors from AT/RT patients were labeled with 1 ml CD133/1 micromagnetic beads per million cells using a CD133 cell isolation kit (MACS, Miltenyi Biotec). CD133^+ cells were cultured in serum-free DMEM/F12 (GIBCO) medium supplemented with N2 supplement (R&D), 10 ng/ml human recombinant bFGF (R&D) and 10 ng/ml EGF. Gamma radiation was delivered by a Theratronic cobalt unit T-1000 (Theratronic Internation, Inc., Ottawa, Canada) at a dose rate of 1.1 Gy/min (SSD=57.5 cm). For evaluation of cell proliferation, cells were seeded on 24-well plates at a density of 2×10^4 cells/well in medium, followed by the methyl thiazol tetrazolium assay (MTT assay; Sigma-Aldrich Co.). The amount of MTT formazan product was determined using a microplate reader and an absorbance of 560 nm (SpectraMax 250, Molecular Devices, Sunnyvale, Calif., USA).

[2] = tested on: cancer-related stem cells; test: MTT cell viability after chemical treatment, cancer-related stem cells vs non-cancer-related stem cells; format: cell-based, human; conditions: MTT survival fraction; p<0.01
Protocol: Cells were seeded on 24-well plates at a density of 2×10^4 cells/well in medium, after post-chemical therapy 24 hours, then followed and analyzed by the MTT assay (Sigma-Aldrich Co.). The amount of MTT formazon product was determined by measuring the absorbance at 560 nm (SpectraMax 250, Molecular Devices, Sunnyvale, Calif., USA). The drugs for chemotherapy are consisted of visplatin, VP-16, doxorubicin, or paclitaxel.

transplanted iPS cells = test: In vivo osteogenic differentiation and teratoma formation of iPS cells transplanted to nude mice; parameters: species or system nude mice (BALB/c strain)
parental MB cells = test: MTT assay of cell viability in parental MB cells; format: cell-based, human; conditions: 50 μM RV, serum-condition culture
Protocol: (§2) Gamma radiation was delivered by a Theratronic cobalt unit T-1000 (Theratronic Internation, Inc., Ottawa, Canada) at a dose rate of 1.1 Gy/min (SSD=57.5 cm). For evaluation of cell proliferation, cells were seeded on 24-well plates at a density of 2×10^4 cells/well in medium, followed by the methyl thiazol tetrazolium assay (MTT assay; Sigma-Aldrich Co.).

MB-CSCs = test: Migration/invasion and tumor colony formation, MB-CSCs; format: cell-based, human; conditions: 100 μM RV alone or combined with 2 Gy IR, compared with IR (2 Gy) alone
Protocol: (§3) The 24-well plate Transwell® system with a polycarbonate filter membrane of 8-μm pore size (Corning, United Kingdom) was used. Cell suspensions were seeded in the upper compartment of the Transwell® chamber at a density of 1×10^5 cells in 100 μl serum-free medium. After 24 hours, the filter membrane was fixed in 4% formalin for 1 hour. The opposite surface of the filter membrane was stained with Hoechst 33342 for 3 min. The soft agar assay was performed as follows. The bottom of each well (35 mm) of a six-well culture dish was coated with 2 ml agar mixture (DMEM, 10% (v/v) FCS, 0.6% (w/v) agar). After the bottom layer solidified, 2 ml top agar-medium mixture (DMEM, 10% (v/v) FCS, 0.3% (w/v) agar) containing 2×10^4 cells was added, and dishes were incubated at 37° C. for 4 weeks. The plates were stained with 0.5 ml 0.005% Crystal Violet for 1 hour, and then the number of colonies was counted using a microscope.

AT/RT CD133- cells = test: MTT assay of proliferation in AT/RT CD133-; format: cell-based, human; parameters: dose or concentration left out as unconfirmed; conditions: RV for 72 h
Protocol: as §1

AT/RT-CD133+ cells [3] = test: Transwell migration/invasion and soft agar colony formation, AT/RT-CD133+; format: cell-based, human; parameters: migration/invasion: dose or concentration left out as unconfirmed; conditions: compared with IR treatment alone
Protocol: as §3

[4] = tested on: MB-CSCs (medulloblastoma cancer stem-like cells); test: MTT assay of cell viability in MB-CSCs; format: cell-based, human
Protocol: as §2, with “Dissociated cells from the samples of medulloblastoma patients were cultured in serum-free DMEM/F12 (GIBCO) medium supplemented with N2 supplement (R&D), 10 ng/ml human recombinant bFGF (R&D) and 10 ng/ml EGF. Gamma” for “Gamma”

[5] = tested on: AT/RT-CD133+ xenotransplant; test: Xenotransplanted tumorigenicity analysis of AT/RT cells in SCID mice; format: in vivo, SCID mice (BALB/c strain)
Protocol: All procedures involving animals were in accordance with the institutional animal welfare guideline of Taipei Veterans General Hospital. […] Tumor size was measured using calipers and the volume was calculated according to the formula: (length×width^2)/2 and then analyzed using Image Pro-plus software.

ATRT-CD133+ cells = test: Percentage of CD133-positive cells in ATRT-CD133+; format: cell-based, human; parameters: dose or concentration left out as unconfirmed; conditions: RV for 3 days
AT/RT-CD133+/- cells = test: Apoptosis (annexin V, caspase 3, TUNEL) in AT/RT-CD133+/-; format: cell-based, human; parameters: apoptosis induction: dose or concentration left out as unconfirmed
Protocol: The activities of caspases-8 and -3 were determined by ELISA kit (Medical & Biological Laboratories Co., Ltd, Nagoya, Japan) and quantified by reading at 490 nm (MRX; Dynatech Laboratories, Chantilly, Va., U.S.A.). Each individual sample was analyzed in triplicate. Furthermore, apoptotic cells were identified by the terminal dUTP nick-end labeling (TUNEL) method (In situ Cell Death Detection Kit, POD, Roche Boehringer Mannheim Corp., Ind., U.S.A.). Briefly, cells with cover slips were washed with 1× phosphate-buffered saline (PBS), fixed with 4% of paraformaldehyde for 10 min, permeabilized with 0.1% of Triton X-100 for 5 min, and incubated with the TUNEL reagent provided for 1 h. Chromogenic development was then applied using 3-amino-9-ethyl-carbazole, and slides were counterstained using H&E.

iPS and ES cells = test: Osteogenic differentiation of iPS and ES cells (Alizarin red, real-time RT-PCR); format: cell-based
Protocol: For osteogenic induction, ES or iPS cells were cultured in DMEM-LG (Invitrogen) supplemented with 50 μg·ml^−1 ascorbate-2 phosphate, 10 nmol·L^−1 dexamethasone, and 10 mmol·L^−1 β-glycerophosphate (Sigma, St. Louis, Mo.) for 2 weeks. At the end of osteogenic induction, cells were washed twice with PBS, fixed for 10 min at room temperature with 3.7% paraformaldehyde, and stained with von Kossa stain and Alizarin red to assess osteogenic differentiation.
Real-time RT-PCR was performed as previously described. Briefly, total RNA (1 μg) of each sample was reverse-transcribed using 0.5 μg oligo dT and 200 U Superscript II RT (Invitrogen). The amplification was carried out in a total volume of 20 μl containing 0.5 μmol·L^−1 of each primer, 4 mmol·L^−1 MgCl2, 2 μl LightCycler™-FastStart DNA Master SYBR green I (Roche Molecular Systems, Alameda, Calif.) and 2 μl of 1:10 diluted cDNA. PCR reactions were prepared in duplicate and performed using the following program: 95° C. for 10 min, followed by 40 cycles of denaturation at 95° C. for 10 sec. annealing at 55° C. for 5 sec. and extension at 72° C. for 20 sec. Standard curves (cycle threshold values versus template concentration) were prepared for each target gene and for the endogenous reference gene (GAPDH) for each sample. Quantification of unknown samples was performed using LightCycler Relative Quantification Software version 3.3 (Roche).

COc1cc([C@@H]2c3cc4c(cc3[C@@H](O[C@@H]3O[C@@H]5CO[C@@H](C)O[C@H]5[C@H](O)[C@H]3O)[C@H]3COC(=O)[C@H]23)OCO4)cc(OC)c1O [VP16, etoposide]
resistance of CD133+ to chemotherapeutic agent compared with CD133- (AT/RT-CD133+ cells [1]): significantly resistant
resistance of cancer-related stem cell to chemotherapeutic agent compared with non-cancer-related stem cell [2]: significantly resistant

N.N.[Cl][Pt][Cl] [cisplatin]
resistance of CD133+ to chemotherapeutic agent compared with CD133- (AT/RT-CD133+ cells [1]): significantly resistant
resistance of cancer-related stem cell to chemotherapeutic agent compared with non-cancer-related stem cell [2]: significantly resistant

COc1cccc2c1C(=O)c1c(O)c3c(c(O)c1C2=O)C[C@@](O)(C(=O)CO)C[C@@H]3O[C@H]1C[C@H](N)[C@H](O)[C@H](C)O1 [doxorubicin]
resistance of CD133+ to chemotherapeutic agent compared with CD133- (AT/RT-CD133+ cells [1]): significantly resistant
resistance of cancer-related stem cell to chemotherapeutic agent compared with non-cancer-related stem cell [2]: significantly resistant

CC(=O)O[C@H]1C(=O)[C@@]2(C)[C@H]([C@H](OC(=O)c3ccccc3)[C@]3(O)C[C@H](OC(=O)[C@H](O)[C@@H](NC(=O)c4ccccc4)c4ccccc4)C(C)=C1C3(C)C)[C@]1(OC(C)=O)CO[C@@H]1C[C@@H]2O [paclitaxel]
resistance of cancer-related stem cell to chemotherapeutic agent compared with non-cancer-related stem cell [2]: significantly resistant

Oc1ccc(/C=C/c2cc(O)cc(O)c2)cc1 [resveratrol, 3,4′,5-tri-hydroxy-trans-stilbene]
expression of Oct-4, Nanog, Klf-4, and C-Myc in grafts (quantitative RT-PCR) (transplanted iPS cells; osteogenic medium-treated iPS cells, mice fed with resveratrol, six weeks): significantly suppressed
teratoma-like formation in grafts (transplanted iPS cells; osteogenic medium-treated iPS cells, resveratrol 7.5 μg/ml in drinking water, six weeks): No teratoma-like formation
expression of OPN in grafts (immunofluorescence) (transplanted iPS cells; resveratrol 7.5 μg/ml in drinking water daily, six weeks after transplantation, vs vehicle): significantly higher
cell viability of parental MB cells (parental MB cells): moderately affected
total number and growth rates of CD133+ (AT/RT-CD133+ cells [1]; 200 mM RV for 48 and 72 h): significantly decreased
morphology of spheroidlike CD133+ (AT/RT-CD133+ cells [1]; 200 mM RV, 48 h): detached from clusters and became a single suspension
reduction of viability of CD133+ (AT/RT-CD133+ cells [1]; RV 100 mM): 20-25%
anti-cancer proliferation effect of single agent chemotherapy with addition of RV (AT/RT-CD133+ cells [1]; RV added to cisplatin, VP-16, ATRT-CD133+/-): significantly improved
reduction of viability of CD133+ (AT/RT-CD133+ cells [1]; RV for 72 h): about 40%
cell viability (AT/RT-CD133+ cells [1]; RV lower than 50 mM, 24, 48, and 72 h, p>0.05): not significantly affected
migration/invasion (MB-CSCs): significantly inhibited
tumor colony formation (MB-CSCs): significantly inhibited
proliferation and growth of CD133- (AT/RT CD133- cells): totally block
tumor colony formation (AT/RT-CD133+ cells [3]; 150 mM RV alone or combined with IR): significantly inhibited
migration/invasion (AT/RT-CD133+ cells [3]; RV alone or combined with IR): significantly inhibited
morphology of spheroid-like MB-CSCs ([4]; 100 μM RV, 48 hours): detached and became a single-suspension
treatment effect of IR-2 Gy on MB-CSCs with addition of RV ([4]; 100 μM RV, p<0.01): significantly improved
total cell number and growth rates of MB-CSCs ([4]; 150 μM RV for 48 h, p<0.001): significantly decreased
reduction of viability of MB-CSCs ([4]; RV 100 μM): 40-45%
cell viability of MB-CSC ([4]; RV lower than 50 μM, 48 hours, p>0.05): not significantly affected
tumor formation in transplanted SCID mice ([5]; 1,000 AT/RT-CD133+ treated with 200 mM RV for 72 h, within 6 weeks after inoculation): did not form tumors
mean survival times (Kaplan-Meier) ([5]; CD133+ and 150 mM RV/IR vs untreated or only IR-treated CD133+, p<0.01): significantly prolonged
tumor volumes ([5]; CD133+ treated by RV/IR vs CD133+ or CD133+ treated with only IR, p<0.01): significantly decreased
tumor formation ([5]; RV-treated CD133- group): no tumor formation
percentage of CD133-positive cells in ATRT-CD133+ (ATRT-CD133+ cells): decrease
IR (2 Gy)-mediated apoptotic activity (AT/RT-CD133+/- cells; RV plus IR 2 Gy, TUNEL): increase
apoptosis induction (AT/RT-CD133+/- cells; RV, 72 h, annexin V, caspase 3, TUNEL): induce apoptosis
calcium accumulation / mineralization (Alizarin red staining) (iPS and ES cells; 20 μmol·L^−1 resveratrol in osteogenic medium, 14 days): significantly increased
expression of Runx2, OPN and IBSP (iPS and ES cells; 20 μmol·L^−1 resveratrol, 7 or 14 days of induction, vs without resveratrol): significantly higher
